Columns and labels:
[1] = target: T1, recombinant human ALK5 (TGF-βR1) protein (Homo sapiens, UniProt P36897); assay: Biochemical ALK5 (TGF-βR1) assay to measure pKi (LANCE Ultra ULight kinase assay); details: apparent pKi, converted from pIC50 using the Cheng-Prusoff equation
T1 construct: purchased Life Technologies PR9075A
T1 sequence (P36897 34-503): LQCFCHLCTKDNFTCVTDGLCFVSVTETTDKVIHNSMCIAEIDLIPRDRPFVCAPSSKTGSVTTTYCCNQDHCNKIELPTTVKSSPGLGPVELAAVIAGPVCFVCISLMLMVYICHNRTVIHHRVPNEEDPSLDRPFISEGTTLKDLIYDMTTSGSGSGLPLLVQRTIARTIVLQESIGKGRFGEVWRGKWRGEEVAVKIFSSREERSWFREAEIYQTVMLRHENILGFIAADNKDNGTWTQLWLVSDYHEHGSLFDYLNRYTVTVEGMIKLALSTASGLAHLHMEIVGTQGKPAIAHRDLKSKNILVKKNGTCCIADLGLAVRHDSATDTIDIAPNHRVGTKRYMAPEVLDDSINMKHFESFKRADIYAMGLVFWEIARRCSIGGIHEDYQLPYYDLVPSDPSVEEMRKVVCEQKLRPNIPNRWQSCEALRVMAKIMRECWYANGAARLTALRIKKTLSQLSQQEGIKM
Experimental: Example 254: Biochemical ALK5 (TGF-βR1) Assay to Measure pKi
The assays were performed in a 384-well plate (24 columns×16 wells/rows). An Echo® 550 Liquid Handler (Labcyte) was used to prepare various intermediate concentrations of compounds of the present disclosure in 100% DMSO. From the intermediate concentrations, a range of concentrations (from 10 μM to 25 pM corresponding to volumes up to 105 nL) were prepared and ejected into a final assay plate to be used to create individual dose response curves for each of the subject compounds. To a separate column within the assay plate, 105 nL of DMSO in each well was used to establish a maximum assay signal. Additionally, 105 nL of 100 μM SD-208, a selective TGF-βR1 inhibitor (Catalog #S7624, Selleck Chemicals), was used in another column of wells to establish a minimal assay signal.
With a multidrop dispenser, 8 μL of enzyme mixture (1.25× final) was added to each well. The enzyme mixture consisted of 250 pM ALK5 enzyme and 62.5 nM peptide substrate (LANCE® (lanthanide chelate excite) Ultra ULight™-DNA Topoisomerase 2-alpha (Thr1342)) prepared in assay buffer (50 mM HEPES, 10 mM MgCl2, 1 mM EGTA, 0.01% Tween-20, pH 7.5 at room temperature) with 2 mM DTT added prior to use. The plate was then sealed with an adhesive seal and allowed to equilibrate for 60 minutes at room temperature.
Next, 2 μL of 125 μM ATP (5× final, 125 μM ATP prepared in assay buffer with 2 mM DTT) was added to the incubated mixtures, covered with a MicroClime® Environmental Lid (Product No. LLS-0310, Labcyte) and immediately transferred to 37° C. The reactions were allowed to proceed at 37° C. for 60 minutes before terminating with the addition of 10 μL of detection antibody (LANCE® (lanthanide chelate excite) Ultra Europium-anti-phospo-DNA Topoisomerase 2-alpha (Thr1342)) in detection mixture (12 mM EDTA, 4 nM detection antibody prepared in detection buffer (50 mM Tris-HCl, 150 mM NaCl, 0.5% BSA (Fraction V), pH 7.0)) at room temperature. The plate was then read on a Perkin Elmer EnVision Plate Reader using europium specific reader settings with excitation and emission wavelengths set to 320 or 340 nm and 665 nm, respectively.
For dose-response analyses, percent inhibition versus compound concentrations were plotted, and pIC50 values were determined from a 4-parameter robust fit model with GraphPad Prism V5 Software (GraphPad Software, Inc., La Jolla, Calif.). This model obtains pIC50 values by fitting the sigmodial dose-response (variable slope) equation to the data. Results were expressed as pIC50 (negative logarithm of IC50) and subsequently converted to pKi (negative logarithm of dissociate constant, K) using the Cheng-Prusoff equation.
The higher the value of pKi (lower value of Ki), the greater the inhibition of ALK5 activity.

[2] = system: TGF-β-stimulated SMAD3 phosphorylation in BEAS-2B cells; assay: Cellular ALK5 potency assay, inhibition of TGF-β stimulated pSMAD3 formation in BEAS-2B cells; assay type: cell-based; details: Homo sapiens, inhibition of TGF-β (10 ng/mL) stimulated pSMAD3 formation, 1 hour compound incubation, read-out: BEAS2B pIC50 (converted)
Experimental: Example 255: Cellular ALK5 Potency Assay to Measure pIC50, Inhibition of TGF-β Stimulated pSMAD3 Formation in BEAS-2B Cells
The potency of compounds of the present disclosure for inhibition of TGF-β-stimulated SMAD3 phosphorylation was measured in BEAS-2B cells, a human lung epithelial cell line. TGF-β signals through activin receptor-like kinase 5 (ALK5) immediately prior to SMAD3 phosphorylation.
BEAS-2B cells were grown using 50% DMEM (Life Technologies) and 50% F-12 (Life Technologies) media, supplemented with 10% Fetal Bovine Serum (ATCC), 25 mM HEPES (Life Technologies), and 1×Pen-Strep (Life Technologies). Cells were cultured in a humidified incubator set at 37° C., 5% CO2, and trypsonized using 0.25% Trypsin with 0.5% polyvinylpyrrolidone (PVP).
For the assay, BEAS-2B cells were seeded at 7,500 cells/well (25 μL/well) in a 384-well plate and cultured overnight. Before dosing, growth media was aspirated and the wells were rinsed with HBSS Buffer (HBSS with Calcium and Magnesium, Life Technologies) supplemented with 25 mM HEPES (Life Technologies) and 1% Bovine Serum Albumin (Roche). Compounds were serially diluted in DMSO, then further diluted with supplemented HBSS Buffer (50 μL/well) to create a compound plate 3× of the final assay concentration, at 0.3% DMSO. The diluted compounds were then added to the cells (8 μL/well) and incubated at 37° C., 5% CO2 for 1 hour. After the compound incubation, TGF-β (R&D Systems) reconstituted in supplemented HBSS Buffer was added to the cells ([…], final concentration 10 ng/mL) and incubated for a further 30 minutes, after which the cells were immediately lysed with AlphaLISA lysis buffer (PerkinElmer). AlphaLISA Acceptor and Detector beads (PerkinElmer) were added 2 hours apart, then incubated overnight to be read the next day. The potency of the compound was determined through analysis of dose-dependent quantified changes in pSMAD3 signal from baseline (non-compound treated TGF-β stimulated cells). Data are expressed as pIC50 (negative decadic logarithm IC50) values.

Row | Compound | Ki [1] [nM] | IC50 [2] [nM]
1 | CC1(C)CCCN1CCNc1cnc2ccc(-c3c[nH]nc3-c3cc(Cl)ccc3F)nc2c1 [Compound 1-13, 6-[3-(5-chloro-2-fluoro-phenyl)-1H-pyrazol-4-yl]-N-[2-(2,2-dimethylpyrrolidin-1-yl)ethyl]-1,5-naphthyridin-3-amine] | 0.0398 to 0.316 | ≤ 20
2 | Fc1ccc(Cl)cc1-c1n[nH]cc1-c1ccc2ncc(NCCN3CCCC3)cc2n1 [Compound 1-14, 6-[3-(5-chloro-2-fluoro-phenyl)-1H-pyrazol-4-yl]-N-(2-pyrrolidin-1-ylethyl)-1,5-naphthyridin-3-amine] | 0.0398 to 0.316 | ≤ 20
3 | Fc1ccc(Cl)cc1-c1n[nH]cc1-c1ccc2ncc(Nc3ccc(N4CCNCC4)cn3)cc2n1 [Compound 1-15, 6-(3-(5-chloro-2-fluorophenyl)-1H-pyrazol-4-yl)-N-(5-(piperazin-1-yl)pyridin-2-yl)-1,5-naphthyridin-3-amine] | 0.0398 to 0.316 | 25.1 to 158
4 | Fc1ccc(Cl)cc1-c1n[nH]cc1-c1ccc2ncc(NCCN3CCNCC3)cc2n1 [Compound 1-21, 6-[3-(5-chloro-2-fluoro-phenyl)-1H-pyrazol-4-yl]-N-(2-piperazin-1-ylethyl)-1,5-naphthyridin-3-amine] | 0.0398 to 0.316 | 25.1 to 158
5 | COC(=O)C1CN(CCNc2cnc3ccc(-c4c[nH]nc4-c4cc(Cl)ccc4F)nc3c2)CCN1 (centres unmarked) [Compound 1-22, methyl 4-[2-[[6-[3-(5-chloro-2-fluoro-phenyl)-1H-pyrazol-4-yl]-1,5-naphthyridin-3-yl]amino]ethyl]piperazine-2-carboxylate] | 0.0398 to 0.316 | 25.1 to 158
6 | Fc1ccc(Cl)cc1-c1n[nH]cc1-c1ccc2ncc(NC3CCNCC3)cc2n1 [Compound 1-24, 6-[3-(5-chloro-2-fluoro-phenyl)-1H-pyrazol-4-yl]-N-(4-piperidyl)-1,5-naphthyridin-3-amine] | 0.0398 to 0.316 | 25.1 to 158
7 | Fc1ccc(Cl)cc1-c1n[nH]cc1-c1ccc2ncc(NC3CCCNC3)cc2n1 (centres unmarked) [Compound 1-25, 6-[3-(5-chloro-2-fluoro-phenyl)-1H-pyrazol-4-yl]-N-(3-piperidyl)-1,5-naphthyridin-3-amine] | 0.398 to 3.16 | 25.1 to 158

Continued, in another order:

Row | Ki [1] [nM] | Compound | IC50 [2] [nM]
8 | 0.0398 to 0.316 | Fc1ccc(Cl)cc1-c1n[nH]cc1-c1ccc2ncc(NCC3CCNC3)cc2n1 (centres unmarked) [Compound 1-16, 6-[3-(5-chloro-2-fluoro-phenyl)-1H-pyrazol-4-yl]-N-(pyrrolidin-3-ylmethyl)-1,5-naphthyridin-3-amine] | 25.1 to 158
9 | 0.0398 to 0.316 | Fc1ccc(Cl)cc1-c1n[nH]cc1-c1ccc2ncc(NCC3CCN3)cc2n1 (centres unmarked) [Compound 1-17, N-(azetidin-2-ylmethyl)-6-[3-(5-chloro-2-fluoro-phenyl)-1H-pyrazol-4-yl]-1,5-naphthyridin-3-amine] | 25.1 to 158
10 | 0.0398 to 0.316 | Fc1ccc(Cl)cc1-c1n[nH]cc1-c1ccc2ncc(NC3CNC3)cc2n1 [Compound 1-18, N-(azetidin-3-yl)-6-[3-(5-chloro-2-fluoro-phenyl)-1H-pyrazol-4-yl]-1,5-naphthyridin-3-amine] | 25.1 to 158
11 | 0.398 to 3.16 | Fc1ccc(Cl)cc1-c1n[nH]cc1-c1ccc2ncc(N[C@@H]3CCNC3)cc2n1 [Compound 1-19, 6-[3-(5-chloro-2-fluoro-phenyl)-1H-pyrazol-4-yl]-N-[(3R)-pyrrolidin-3-yl]-1,5-naphthyridin-3-amine] | 25.1 to 158
12 | 0.0398 to 0.316 | Fc1ccc(Cl)cc1-c1n[nH]cc1-c1ccc2ncc(NC[C@@H]3CCCN3)cc2n1 [Compound 1-20, 6-[3-(5-chloro-2-fluoro-phenyl)-1H-pyrazol-4-yl]-N-[[(2S)-pyrrolidin-2-yl]methyl]-1,5-naphthyridin-3-amine] | ≤ 20
13 | 0.0398 to 0.316 | Fc1ccc(Cl)cc1-c1n[nH]cc1-c1ccc2ncc(NCC3CCCCN3)cc2n1 (centres unmarked) [Compound 1-23, 6-[3-(5-chloro-2-fluoro-phenyl)-1H-pyrazol-4-yl]-N-(2-piperidylmethyl)-1,5-naphthyridin-3-amine] | 25.1 to 158

From patent publication US11730720B2, “ALK5 inhibitors” (THERAVANCE BIOPHARMA R&D IP, LLC, priority 2018, dated 2023)
